# Data taken from patent publication US9980943B2, “Methods of treating muscular dystrophy” (BOARD OF REGENTS OF THE NEVADA SYSTEM OF HIGHER EDUCATION, …, priority 2013, dated 2018).
# Tests used:
# Format in all cases: cell-based, mouse
# [1] = test system: α7 integrin (LacZ reporter in α7+/LacZ myotubes); assay: Myotube α7 integrin FDG assay (Burkin assay in myotubes, 96-well); settings: myotubes
# [2] = test system: α7 integrin (LacZ reporter in α7βgal+/− myoblasts); assay: Myoblast α7+/LacZ integrin FDG assay (Burkin assay in myoblasts, 96-well); settings: α7+/LacZ myoblasts, 96-well
# [3] = test system: β-galactosidase in CMV-LacZ C2C12 myotubes; assay: CMV-LacZ secondary screen in C2C12 myotubes (β-Gal stabilizing assay); settings: for CMV-LACZ in Myotubes (β-galactosidase activity relative to DMSO): CMV-LacZ C2C12 myotubes, 96-well format
# Method in brief: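 A secondary screen identifies compounds that stabilize β-gal independently of the native promoter, using CMV-LacZ C2C12 cells. Curves span 0.5–40 μM at six levels, in duplicate.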
# [4] = 5 uM, C2C12 CMV-LacZ myotubes, fold relative to DMSO
# [5] = 10 uM, C2C12 CMV-LacZ myotubes, fold relative to DMSO
# [6] = 20 uM, C2C12 CMV-LacZ myotubes, fold relative to DMSO
# [7] = 40 uM, C2C12 CMV-LacZ myotubes, fold relative to DMSO
SMILES,"Burkin Assay in Myotubes, α7 integrin LacZ reporter signal relative to DMSO ([1]; 0.5 uM)","Burkin Assay in Myotubes, α7 integrin LacZ reporter signal relative to DMSO ([1]; 1 uM)","Burkin Assay in Myotubes, α7 integrin LacZ reporter signal relative to DMSO ([1]; 5 uM)","Burkin Assay in Myotubes, α7 integrin LacZ reporter signal relative to DMSO ([1]; 10 uM)","Burkin Assay in Myotubes, α7 integrin LacZ reporter signal relative to DMSO ([1]; 20 uM)","Burkin Assay in Myotubes, α7 integrin LacZ reporter signal relative to DMSO ([1]; 40 uM)","Burkin Assay in Myoblasts, signal relative to DMSO ([2]; 0.5 uM)","Burkin Assay in Myoblasts, signal relative to DMSO ([2]; 1 uM)","Burkin Assay in Myoblasts, signal relative to DMSO ([2]; 5 uM)","Burkin Assay in Myoblasts, signal relative to DMSO ([2]; 10 uM)","Burkin Assay in Myoblasts, signal relative to DMSO ([2]; 20 uM)","Burkin Assay in Myoblasts, signal relative to DMSO ([2]; 40 uM)","CMV-LACZ in Myotubes, signal relative to DMSO [3, 4]","CMV-LACZ in Myotubes, signal relative to DMSO [3, 5]","CMV-LACZ in Myotubes, signal relative to DMSO [3, 6]","CMV-LACZ in Myotubes, signal relative to DMSO [3, 7]",Burkin Assay in Myotubes (signal relative to DMSO) ([1]; 0.5 uM),Burkin Assay in Myotubes (signal relative to DMSO) ([1]; 1 uM),Burkin Assay in Myotubes (signal relative to DMSO) ([1]; 5 uM),Burkin Assay in Myotubes (signal relative to DMSO) ([1]; 10 uM),other results
Cc1cccc(NC(=O)c2cc3ccccc3oc2=O)c1 [MLS001209245-01],1.113,1.245,0.9667,0.9979,0.6876,0.5729,1.039,1.132,1.021,1.071,1.1,1.039,0.8568,0.9675,0.9662,0.9952,–,–,–,–,–
Cc1nc2c(cnn2-c2ccccc2)c(=O)n1/N=C/c1ccccc1 [MLS000860538-01],0.985,1.102,1.319,1.412,0.9635,0.9403,1.02,1.033,1.078,1.115,0.958,0.9783,1.001,0.9613,1.017,0.9667,–,–,–,–,–
Cc1ccccc1C(=O)Nc1nnc(SC(C)C)s1 [MLS000683174-01],–,–,–,–,–,–,–,–,–,–,–,–,1.156,1.0866,1.035,1.238,1.145,0.9165,1.007,0.8907,"Burkin Assay in Myotubes (signal relative to DMSO) ([1]; 20 uM): 1.081; Burkin Assay in Myotubes (signal relative to DMSO) ([1]; 40 uM): 0.9864; Burkin Assay in Myoblasts, value relative to DMSO ([2]; 0.5 uM): 1.02; Burkin Assay in Myoblasts, value relative to DMSO ([2]; 1 uM): 0.9176; Burkin Assay in Myoblasts, value relative to DMSO ([2]; 5 uM): 1.02; Burkin Assay in Myoblasts, value relative to DMSO ([2]; 10 uM): 1.014; Burkin Assay in Myoblasts, value relative to DMSO ([2]; 20 uM): 1.028; Burkin Assay in Myoblasts, value relative to DMSO ([2]; 40 uM): 0.8059"
COc1ccc(-c2cc(COc3ccccc3)on2)cc1 [MLS000695955-01],–,–,–,–,–,–,–,–,–,–,–,–,–,–,–,–,–,–,–,–,"fold induction at 0.5 µM ([1]; Mus musculus, Myotube, 0.5 uM, read-out: Burkin Assay in Myotubes, α7 integrin LacZ reporter signal relative to DMSO): 0.945; fold induction at 1 µM ([1]; Mus musculus, Myotube, 1 uM, read-out: Burkin Assay in Myotubes, α7 integrin LacZ reporter signal relative to DMSO): 1.03; fold induction at 5 µM ([1]; Mus musculus, Myotube, 5 uM, read-out: Burkin Assay in Myotubes, α7 integrin LacZ reporter signal relative to DMSO): 1.15; fold induction at 10 µM ([1]; Mus musculus, Myotube, 10 uM, read-out: Burkin Assay in Myotubes, α7 integrin LacZ reporter signal relative to DMSO): 1.32; fold induction at 20 µM ([1]; Mus musculus, Myotube, 20 uM, read-out: Burkin Assay in Myotubes, α7 integrin LacZ reporter signal relative to DMSO): 1.23; fold induction at 40 µM ([1]; Mus musculus, Myotube, 40 uM, read-out: Burkin Assay in Myotubes, α7 integrin LacZ reporter signal relative to DMSO): 1.39; fold induction at 0.5 µM ([2]; Mus musculus, Myoblast, 48 h, 0.5 uM, read-out: Burkin Assay in Myoblasts, signal relative to DMSO): 0.902; fold induction at 1 µM ([2]; Mus musculus, Myoblast, 48 h, 1 uM, read-out: Burkin Assay in Myoblasts, signal relative to DMSO): 0.871; fold induction at 5 µM ([2]; Mus musculus, Myoblast, 48 h, 5 uM, read-out: Burkin Assay in Myoblasts, signal relative to DMSO): 1.08; fold induction at 10 µM ([2]; Mus musculus, Myoblast, 48 h, 10 uM, read-out: Burkin Assay in Myoblasts, signal relative to DMSO): 1.06; fold induction at 20 µM ([2]; Mus musculus, Myoblast, 48 h, 20 uM, read-out: Burkin Assay in Myoblasts, signal relative to DMSO): 0.961; fold induction at 40 µM ([2]; Mus musculus, Myoblast, 48 h, 40 uM, read-out: Burkin Assay in Myoblasts, signal relative to DMSO): 1.03; fold induction at 5 µM ([3]; Mus musculus, C2C12, read-out: CMV-LACZ in Myotubes, signal relative to DMSO, 5 uM, C2C12 CMV-LacZ myotubes, fold relative to DMSO): 0.789; fold induction at 10 µM ([3]; Mus musculus, C2C12, read-out: CMV-LACZ in Myotubes, signal relative to DMSO, 10 uM, C2C12 CMV-LacZ myotubes, fold relative to DMSO): 0.896; fold induction at 20 µM ([3]; Mus musculus, C2C12, read-out: CMV-LACZ in Myotubes, signal relative to DMSO, 20 uM, C2C12 CMV-LacZ myotubes, fold relative to DMSO): 0.992; fold induction at 40 µM ([3]; Mus musculus, C2C12, read-out: CMV-LACZ in Myotubes, signal relative to DMSO, 40 uM, C2C12 CMV-LacZ myotubes, fold relative to DMSO): 0.93"
CC(OC(=O)c1cc(-c2cccnc2)nc2ccccc12)C(=O)Nc1ccc2ccccc2c1 (stereo not drawn) [MLS000389484-01],0.9292,0.7793,0.8638,0.6433,0.867,0.6946,0.7848,0.7672,0.8524,0.8706,0.7331,0.6132,0.8524,0.8387,1.116,2.781,–,–,–,–,–
Cc1ccc(NC(=O)CC2COc3ccccc3O2)cc1 (stereo not drawn) [MLS000534926-01],–,–,–,–,–,–,–,–,–,–,–,–,–,–,–,–,1.026,0.9445,1.006,0.9622,"Burkin Assay in Myotubes (signal relative to DMSO) ([1]; 20 uM): 1.338; Burkin Assay in Myotubes (signal relative to DMSO) ([1]; 40 uM): 0.8565; Burkin Assay in Myoblasts, value relative to DMSO ([2]; 0.5 uM): 1.522; Burkin Assay in Myoblasts, value relative to DMSO ([2]; 1 uM): 0.9473; Burkin Assay in Myoblasts, value relative to DMSO ([2]; 5 uM): 0.8586; Burkin Assay in Myoblasts, value relative to DMSO ([2]; 10 uM): 0.8832; Burkin Assay in Myoblasts, value relative to DMSO ([2]; 20 uM): 0.5996; Burkin Assay in Myoblasts, value relative to DMSO ([2]; 40 uM): 0.4222; CMV-LACZ in Myotubes (β-galactosidase activity relative to DMSO) ([3]; 5 uM): 0.9724; CMV-LACZ in Myotubes (β-galactosidase activity relative to DMSO) ([3]; 10 uM): 0.969; CMV-LACZ in Myotubes (β-galactosidase activity relative to DMSO) ([3]; 20 uM): 0.9547; CMV-LACZ in Myotubes (β-galactosidase activity relative to DMSO) ([3]; 40 uM): 0.844"
